Data: patent US11078153B2, “2-difluoro substituted 4-aminocyclopentanecarboxylic acids as inhibitors of gamma-aminobutyric acid aminotransferase and human ornithine aminotransferase” (Northwestern University, priority 2019, dated 2021)
“Also recorded” adds a separate entry of the source. Where two headings read alike, the source gives them in different places. Each block holds one compound with its values, some of them ahead of it.

Experiments:
[1] = molecular target: T1, OAT (Homo sapiens, UniProt P04181); test: OAT inhibition / inactivation assay (concentration-dependent assay with OAT); type: biochemical
T1 sequence (P04181 36-439 limits assumed): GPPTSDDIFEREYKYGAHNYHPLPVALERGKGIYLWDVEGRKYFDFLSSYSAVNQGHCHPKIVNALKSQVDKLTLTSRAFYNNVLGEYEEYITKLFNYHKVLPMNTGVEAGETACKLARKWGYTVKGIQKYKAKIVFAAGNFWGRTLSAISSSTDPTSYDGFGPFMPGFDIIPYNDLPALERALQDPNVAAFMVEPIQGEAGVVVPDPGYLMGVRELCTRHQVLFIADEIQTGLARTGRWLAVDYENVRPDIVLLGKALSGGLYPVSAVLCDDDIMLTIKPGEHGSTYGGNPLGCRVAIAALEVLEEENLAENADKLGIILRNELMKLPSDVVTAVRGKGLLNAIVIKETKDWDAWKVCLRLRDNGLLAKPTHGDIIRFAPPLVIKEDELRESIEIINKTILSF

[2] = molecular target: T1, OAT; test: Partition ratio assay of OAT; type: biochemical; settings: with α-KG, FIG. 5
Protocol: A partition ratio assay of OAT with NAL-1-47 was performed to determine the ratio of the compound acting as a substrate to the compound inactivating the enzyme.

[3] = test system: GABA-AT; test: Concentration dependent assay of GABA-AT; type: biochemical
[4] = molecular target: T1, OAT; test: OAT fluoride release assay; type: biochemical; settings: without α-ketoglutarate, FIG. 3
Protocol: An OAT fluoride release assay was performed with NAL-1-47 and it was calculated that there were 13.02 fluoride ions released per enzyme active site (FIG. 3).

[5] = molecular target: T1, OAT; test: Dialysis assay of NAL-1-47 with OAT; type: biochemical; settings: for Percent Activity Remaining of OAT with NAL-1-47: pre-incubated overnight at 37° C.
Protocol: NAL-1-47 was incubated with OAT then dialyzed to determine whether it functions as a reversible inhibitor or an irreversible inactivator of OAT. NAL-1-47 was pre-incubated overnight at 37° C. with OAT. The remaining activity of the OAT was determined for 20, 50, 80, and 120 equiv of NAL-1-47 per OAT active site. The inactivated OAT was then dialyzed for 144 h and using a control, it was confirmed that the control OAT retained the majority of its activity after this dialysis.

[6] = test system: GABA-AT; test: Time-dependent assay with GABA-AT; type: biochemical
[7] = molecular target: T1, OAT; test: Time-dependent assay with OAT (kinact/KI); type: biochemical
From the text: In summary, enantiomerically pure 1 was synthesized from an enantiomerically pure Vince lactam in six steps.

[8] = long-term administration; cited from earlier work
[9] = cocaine addiction in humans, 9-week double-blind trial; cited from earlier work
[10] = listed as S, S enantiomer, hydrochloride

inhibition / inactivation of OAT (in words) [1, 10]: inactivate OAT | partition ratio [2]: 54.5 | fluoride ions released per enzyme active site [4]: 13.02 | Percent Activity Remaining of OAT with NAL-1-47 ([5]; 20 equiv per OAT active site): 67.3% | Percent Activity Remaining of OAT with NAL-1-47 after 144 h Dialysis ([5]; 20 equiv): 63.3% | Percent Activity Remaining of OAT with NAL-1-47 ([5]; 50 equiv per OAT active site): 52.5% | Percent Activity Remaining of OAT with NAL-1-47 after 144 h Dialysis ([5]; 50 equiv): 38.5% | Percent Activity Remaining of OAT with NAL-1-47 ([5]; 80 equiv per OAT active site): 31.7% | Percent Activity Remaining of OAT with NAL-1-47 after 144 h Dialysis ([5]; 80 equiv): 27.6% | Percent Activity Remaining of OAT with NAL-1-47 ([5]; 120 equiv per OAT active site): 21.1% | Percent Activity Remaining of OAT with NAL-1-47 after 144 h Dialysis ([5]; 120 equiv): 15.1% | kinact/KI ([7]; OAT, Example 2, FIG. 4, read-out: kinact/KI (converted)): 1.13 M⁻¹ s⁻¹ | kinact/KI ([7]; time-dependent assay with OAT, Example 1): 2.67 M⁻¹ s⁻¹
SMILES: Cl.N[C@H]1C[C@@H](C(=O)O)C(F)(F)C1 [NAL-1-47, (1S,4S)-4-amino-2,2-difluorocyclopentanecarboxylic acid hydrochloride]
inhibition / inactivation of OAT (in words) ([1]; hydrochloride): shown to inactivate OAT; also recorded: found to inhibit OAT potently | inhibition / inactivation of OAT (in words) ([1]; listed as 1, hydrochloride): inhibitory activity against the enzymes GABA-AT and OAT; also recorded: inhibit OAT more potently than the racemic version of this compound; also recorded: determined as an inactivator; also recorded: selectively inactivate OAT and was more potent than the racemic compound | Activity Remaining (GABA-AT) ([3]; Conc. 0.0781 mM): 110.6% | Activity Remaining (GABA-AT) ([3]; Conc. 0.1563 mM): 100.7% | Activity Remaining (GABA-AT) ([3]; Conc. 0.3125 mM): 91.0% | Activity Remaining (GABA-AT) ([3]; Conc. 0.625 mM): 93.6% | Activity Remaining (GABA-AT) ([3]; Conc. 1.25 mM): 93.4% | Activity Remaining (GABA-AT) ([3]; Conc. 2.5 mM): 88.3% | Activity Remaining (GABA-AT) ([3]; Conc. 5 mM): 67.8% | Activity Remaining (GABA-AT) ([3]; Conc. 10 mM): 44.7% | inhibition of GABA-AT (in words) ([3]; hydrochloride): does not inhibit GABA-AT potently; also recorded: neither compound potently inhibited GABA-AT | inhibition of GABA-AT (in words) ([3]; listed as 1, hydrochloride): inhibitory activity against the enzymes GABA-AT and OAT | inhibition of GABA-AT (in words) [3, 10]: only very weakly inhibit GABA-AT | inhibitory activity against GABA-AT in time-dependent assays (in words) [6]: no significant inhibitory activity

SMILES: N[C@@H]1C[C@H](C(=O)O)C(F)(F)C1 [NAL-1-73]
inhibition / inactivation of OAT (in words) ([1]; listed as R, R enantiomer): did not inhibit either OAT or GABA-AT potently | inhibition of GABA-AT (in words) [3]: neither compound potently inhibited GABA-AT | Activity Remaining (GABA-AT) ([3]; Conc. 0.0781 mM): 100.9% | Activity Remaining (GABA-AT) ([3]; Conc. 0.1563 mM): 94.5% | Activity Remaining (GABA-AT) ([3]; Conc. 0.3125 mM): 95.1% | Activity Remaining (GABA-AT) ([3]; Conc. 0.625 mM): 103.5% | Activity Remaining (GABA-AT) ([3]; Conc. 1.25 mM): 88.8% | Activity Remaining (GABA-AT) ([3]; Conc. 2.5 mM): 85.2% | Activity Remaining (GABA-AT) ([3]; Conc. 5 mM): 70.3% | Activity Remaining (GABA-AT) ([3]; Conc. 10 mM): 55.3% | inhibition of GABA-AT (in words) ([3]; listed as R, R enantiomer): did not inhibit either OAT or GABA-AT potently | inhibitory activity against GABA-AT in time-dependent assays (in words) [6]: no significant inhibitory activity

SMILES: C=CC(N)CCC(=O)O (centres unmarked) [Vigabatrin]
permanent vision loss, share of epilepsy patients [8]: 25-40% | patients achieving abstinence [9]: up to 28%
